# In patent US5496452A, “Substrate regenerating biosensor” (priority 1990, dated 1996):
# Legend:
# [1] = target: T1, horseradish peroxidase (HRP) (Armoracia rusticana, UniProt P00433); assay: Ferrocenes as mediators for HRP reduction: ring current at rotating ring disc electrode; assay type: biochemical; details: ferrocene derivative 0.5 mM, HRP 2.5 μM, disc potential -1.2V; for Relative Current: relative to hydroxymethyl ferrocene = 100%
# T1 construct: purchased Biozyme
# T1 sequence (P00433 31-353): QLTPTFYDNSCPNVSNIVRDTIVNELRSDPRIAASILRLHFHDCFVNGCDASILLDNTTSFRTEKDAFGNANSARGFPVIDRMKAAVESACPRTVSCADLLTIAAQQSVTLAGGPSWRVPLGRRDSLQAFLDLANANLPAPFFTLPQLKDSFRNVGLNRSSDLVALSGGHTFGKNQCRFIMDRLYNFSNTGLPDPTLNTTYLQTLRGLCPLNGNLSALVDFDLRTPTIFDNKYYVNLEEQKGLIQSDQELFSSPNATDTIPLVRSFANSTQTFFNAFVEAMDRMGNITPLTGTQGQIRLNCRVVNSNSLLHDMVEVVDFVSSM
# From the text: The electrocatalytic activity of HRP as shown in FIGS. 1 and 2 was typically assessed by immersing the rotating ring disc electrode in a buffered solution containing peroxidase and hydroxymethyl ferrocene mediator. The electrode was rotated at a constant speed to control the transport of material to the disc electrode and subsequently out to the ring. A cathodic potential sweep was applied to the glassy carbon disc at 0.1V/S. The platinum ring was held at constant potential of 0V and the current at the ring as a function of the disc potential was measured. Before determination of the peroxidase generated ring current, following electrode immersion, the ring current (background current) was allowed to stabilize (about 5 min). […] The catalytic current was defined as the net reductive current occurring at a disc potential of 0 volts.
# The actual profile of the reduction current seen at the ring electrode is a function of the concentrations of the enzyme and substrates, as well as the rotation rate of the electrode, the sweep rate at the disc and the potential of the ring. The magnitude of this current also depends on the fraction of enzymatically generated ferricinium (oxidized ferrocene) which actually reaches the ring.
# (§1) Several ferrocenes shown in Table 1 were tested for their ability to act as mediators for HRP reduction.
# [2] = Redox potential (Ep1/2) of ferrocene derivatives; assay type: physicochemical; details: ferrocene derivative 0.5 mM; potentials quoted vs SCE
# From the text: A four electrode analogue potentiostat (not shown) which is optionally computer controlled is used to control the potentials at the working electrodes (2) and (3). The disc electrode (2) is connected to a triangular wave generator (not shown) for potential sweeps and the ring electrode (3) is connected to a constant DC voltage source. The electrode rotation is controlled by a Ursar Scientific rotator. All potentials are quoted with respect to a saturated calomel electrode (SCE) with a 1 cm^2 platinum gauze serving as the counter electrode.
# as §1
Compound,Current (ring current) [1],Relative Current [1],Ep1/2 (redox potential) [2]
"O=C([O-])[c-]1cccc1.O=C([O-])[c-]1cccc1.[Fe+2] [1,1' Dicarboxylate Ferrocene]",0.10 mA,3%,420 mv
OC[c-]1cccc1.[Fe+2].c1cc[cH-]c1 [Hydroxymethyl Ferrocene],3.8 mA,100%,210 mv
CN(C)Cc1ccc[cH-]1.[Fe+2].c1cc[cH-]c1 [Dimethylaminomethyl Ferrocene],0.22 mA,6%,490 mv
O=C([O-])[c-]1cccc1.[Fe+2].c1cc[cH-]c1 [Monocarboxylate Ferrocene],0.64 mA,17%,295 mv
